From patent US9717772B2, “Interval therapy for the treatment of loss of eyesight in humans with glaucoma and other degenerative eye diseases” (Ramot at Tel-Aviv University Ltd., priority 2012, dated 2017)
Non-standard residues stand in square brackets, D forms with d. Residues, ends and D or L forms follow the SMILES beside them. Aib = CC(C)(N)C(=O)O

Tests used:
[1] = Half-life and concentrations of substance in the rat / vitreal space of the eye; type: in vivo
Method: In a further experiment, rats are treated systemically (s.c.) and the experiment is repeated as above. The aim of this study is to verify whether systemic administration produces sufficiently high concentrations in the eye. Therefore, additionally, concentrations of substances of the instant invention are analyzed in the vitreal space of the eye. In animals treated systemically with experimental substances, there is a decrease in RGC apoptosis at least at one time point assessed and significant concentrations of the experimental substances are detected in the vitreal space of the eye.
The experiment is repeated as described above, except that substance is applied (s.c.) once 24 hrs before induction of glaucoma.
In another animal study with glaucomatous rats (procedure as described above, Morrison model) D-Trp-Aib (SEQ ID NO. 30) is applied 3 days prior to the induction of glaucoma (one single s.c injection). […] The explanation of this unexpected finding is that the pretreatment with D-Trp-Aib (SEQ ID NO. 30) leads to formation of non-toxic bulky Aβ aggregates (possibly micro non-toxic bulky Aβ aggregates) consisting of D-Trp-Aib (SEQ ID NO. 30) and physiologically Aβ that is ubiquitously prevailing at low concentrations. These non-toxic bulky Aβ aggregates function in isolating toxic Aβ after glaucoma induction even if the Aβ is released at higher concentrations.

[2] = tested on: CA1 region of the hippocampus (Aβ1-42 inhibition of LTP); experiment: Long-term potentiation (LTP) of fEPSPs in hippocampal slices after Aβ1-42 aggregated with or without D-Trp-Aib; type: cell-based, mice; conditions: Aβ1-42 50 nM aggregated under serial dilution conditions without D-Trp-Aib
Method: Aβ1-42 (order number 62-0-80, batch Y11042T1, American Peptide Company, Sunnyvale, Calif. 94086, U.S.A.) is suspended in 100% HFIP (Sigma Aldrich) to approximately 1 mg/ml (2 mg dissolved in 2 ml HFIP) and shaken at 37° C. for 1.5 hours in tightly sealed Eppendorf vials. This is allowed to cool to room temperature and then the solution is portioned into aliquots and the HFIP removed by evaporation using a Speedvac for approximately 30 minutes. When dry, the Aβ1-42 is stored at −20° C. The Aβ1-42 is dissolved in anhydrous DMSO (Sigma Aldrich) to a concentration of 100 fold that required in PBS (i.e. 10 mM for 100 μM) with the aid of an ultrasonic water bath with/without D-Trp-Aib (SEQ ID NO. 30) (i.e. for a 10:1 ratio with D-Trp-Aib (SEQ ID NO. 30) 100 mM for 10 mM Aβ1-42). This solution is then immediately diluted in PBS to a final concentration of 100 μM Aβ in 1% DMSO. These solutions are allowed to aggregate at room temperature for various times (e.g. 1 hour, 1 day, 1 week) before being used. […]
Extracellular recordings of field excitatory postsynaptic potentials (fEPSPs) are obtained from the dendritic region of the CA1 region of the hippocampus using glass micropipettes (1-2 MW) filled with superfusion solution. […] Amplified fEPSPs and NMDA-EPSCs are filtered (3 kHz), digitized (15 kHz) and measured and plotted online, using the “LTP-program”-software. […]

Compound | detectability in the animal at the time point of glaucoma induction ([1]; 3 days after one single s.c injection) | half-life ([1]; in vivo, in the rat) | inhibition of LTP [2]
CC(C)(NC(=O)[C@H](N)Cc1c[nH]c2ccccc12)C(=O)O [D-Trp-Aib] (H-[dW]-[Aib]-OH; N-terminus and C-terminus assumed) | no longer detectable | 1 to 2 h | –
Aβ1-42: lyophilized β-amyloid Aβ1-42 peptide (Bachem / American Peptide Company) used as toxic stimulus | – | – | strong inhibition of LTP
